Test results: patent US11396531B2, “Antimicrobial peptides comprising epsilon lysine residues” (priority 2016, dated 2022)
In brackets after ≈: the same amount, converted by molar mass. Where two headings read alike, the source gives them in different places.

Key:
[1] = Calcein dye leakage from mammalian model LUVs; conditions: peptide:lipid ratio 0.0625
Experimental: To obtain an insight into the mechanism of membrane discrimination, large unilamellar vesicles (LUVs) which mimic the cytoplasmic membrane of mammalian (PC/Cholesterol) and microbial (PE:PG) cells were used. […] More dramatic results were observed when the experiments were carried out on PC/Cholesterol LUVs.

S. aureus or MRSA = assay type: cell-based, Staphylococcus aureus; conditions: Table 4, range over 5 strains
Experimental: (§1) MIC of cationic polymers and polypeptide were tested in accordance with the Clinical and Laboratory Standards Institute (CLSI) guidelines against a panel of antibiotic-susceptible/-resistant bacteria, yeasts and fungal strains. Bacterial and yeast strains were cultured on tryptic soy agar (TSA) and Sabaroud dextrose agar (SDA) plates (Neogen Corporation, MI, USA) overnight respectively. Inocula in Mueller-Hinton broth (MHB) for bacteria and SD broth for C. albicans (Beckton Dickinson, MD, USA) were prepared at 0.5 McFarland. The suspensions were then diluted to a final concentration of 10^5 CFU/ml in a 96-well microtitre plate (SPL Life Sciences Co., Ltd, Korea). Polymers and polypeptides were added to the inoculum in 2-fold serial dilutions to give a range of concentrations from 2-1024 μg/ml. […] The antimicrobial activities were compared with topical antiseptic agents, BAK and CHX. A similar protocol was used to determine the MIC of εPL against antibiotic-resistant pathogens. MIC of the polymers and polypeptides against Fusarium strains was determined in full strength RPMI-1640 buffer. Fungal spores were recovered from a 5-day old culture on a potato dextrose agar and diluted to a concentration of 10^5 spores/ml in 0.9% saline solution. A further 50-fold dilution was done in RPMI-1640 buffer and 100 μl of the inoculum was added to 96 well plates containing an equal volume of test peptides at 2-fold serial dilutions. 200 μl of inoculum without any additives and buffer alone served as positive and negative controls, respectively. The plate was then incubated at 30° C. for 48 h. The absorbance value was measured at 600 nm as before and the lowest concentration of the peptide which inhibited 90% growth was reported. All MIC determinations were performed in duplicates.
(§2) MICs of polymers/antibiotics were determined using the microdilution method in 96 well microtitre plates (SPL Life Sciences Co., Ltd, Korea), following the guidelines of Clinical and Laboratory Standards Institute (CLSI) document M100-S18. Briefly, polymers (1-512 μg/ml) or antibiotics were dissolved in appropriate media (Mueller Hinton broth, MHB for bacteria; Sabaroud's Dextrose (SD) broth for yeasts and RPMI buffer for Fusarium strains) and 100 μl of this was then mixed with an equal volume of microbial inoculum (OD600=˜0.08) in the same media and shaken in a closed incubator.

[2] = test system: a number of micro-organisms; conditions: cited from earlier work
red blood cells = conditions: cited from earlier work
E. cloacae complex = experiment: microbe, parasite or virus in culture
Experimental: as §1, with “Korea).” for “Korea). Polymers and polypeptides were added to the inoculum in 2-fold serial dilutions to give a range of concentrations from 2-1024 μg/ml.”
as §2

[3] = test system: Carbapenam-resistant Enterobacter strains (CRE); experiment: microbe, parasite or virus in culture; conditions: CRE (n = 19 strains), Table 5
Experimental: as §1, with “Korea).” for “Korea). Polymers and polypeptides were added to the inoculum in 2-fold serial dilutions to give a range of concentrations from 2-1024 μg/ml.”
as §2

A. baumannii = experiment: microbe, parasite or virus in culture; conditions: A. baumannii (n = 10), Table 5
Experimental: as §1, with “Korea).” for “Korea). Polymers and polypeptides were added to the inoculum in 2-fold serial dilutions to give a range of concentrations from 2-1024 μg/ml.”
as §2

**Q.** What does the source list for `CC[C@H](C)[C@H](NC(=O)CN)C(=O)NCC(=O)N[C@@H](C)C(=O)N[C@H](C(=O)N[C@@H](CC(C)C)C(=O)N[C@@H](CCCCN)C(=O)N[C@H](C(=O)N[C@@H](CC(C)C)C(=O)N[C@H](C(=O)N[C@H](C(=O)NCC(=O)N[C@@H](CC(C)C)C(=O)N1CCC[C@H]1C(=O)N[C@@H](C)C(=O)N[C@@H](CC(C)C)C(=O)N[C@H](C(=O)N[C@@H](CO)C(=O)N[C@@H](Cc1c[nH]c2ccccc12)C(=O)N[C@H](C(=O)N[C@@H](CCCCN)C(=O)N[C@@H](CCCNC(=N)N)C(=O)N[C@@H](CCCCN)C(=O)N[C@@H](CCCNC(=N)N)C(=O)N[C@@H](CCC(N)=O)C(=O)N[C@@H](CCC(N)=O)C(N)=O)[C@@H](C)CC)[C@@H](C)CC)[C@@H](C)O)[C@@H](C)O)C(C)C)C(C)C` [Melittin]?
**A.** dye leakage from PC/Cholesterol LUVs [1]: ~70%; MIC against S. aureus or MRSA (n = 5) (S. aureus or MRSA): 4 to 8 µg/mL; MIC (range against a number of micro-organisms) ([2]; at 1 - 4 × 10^5 CFU/mL, reference 4): 0.2 - 3 μM at 1 -; MIC (range against a number of micro-organisms) ([2]; at 1 × 10^6 CFU/mL, reference 6): 0.5 - 8 μM at; MIC (range against a number of micro-organisms) ([2]; at 7.5 × 10^5 CFU/mL, reference 8): 3.9 - 31.3 μM at; Haemolytic activity (red blood cells; at 4 μM, reference 4): 100% at 4 μM; Haemolytic activity (red blood cells; at 5 μM, reference 8): 50% at 5 μM; Haemolytic activity (red blood cells; at 10 μM, reference 6): >80% at 10 μM; MIC (E. cloacae complex; E. cloacae complex 6780, Table 5): 8 µg/mL (≈ 2.81 µM); MIC (E. cloacae complex; E. cloacae complex 44095, Table 5): 8 µg/mL (≈ 2.81 µM); MIC50 ([3]; 50% of strains susceptible): (MIC50 = 8)^2 μg/ml; MIC ([3]; range): 8 to 32 µg/mL; MIC90 (A. baumannii; 90% of strains susceptible): (MIC90 = 4)^2 μg/ml; MIC (A. baumannii; range): 2 to 4 µg/mL
